From patent US8476280B2, “Compositions and methods for combating lower urinary tract dysfunctions with delta opioid receptor agonists” (Versi Group, LLC, priority 2002, dated 2013)

Legend:
healthy conscious rats = experiment: Cystometric parameters in healthy conscious rats; format: in vivo, rat; settings: for inhibition of bladder contractions (micturition pressure): intravenous administration, recorded 90 minutes after injection; for frequency of bladder contractions / pressure of bladder contractions: oral administration via stomach cannula, recorded 120 minutes after administration
Procedure: Male rats weighing 200 to 250 grams were used. The rats were housed with free access to food and maintained on forced 12 hours alternating light-dark cycle at 22-24° C. for at least one week, except during performance of the experiment.
The rats were anesthetized with pentobarbital, 65 mg/kg i.p. and placed in a supine position. An approximately 10 mm long midline incision was made in the shaved and cleaned abdominal wall. The urinary bladder was freed from adhering tissues, emptied and then cannulated, via an incision at the dome with a polyethylene cannula (PE50), which was permanently sutured in place. The cannula was exteriorized through a subcutaneous tunnel in the retroscapular area, where it was connected with a plastic adapter to avoid the risk of removal by the rats. For intravenous (i.v.) injection of test compounds, a polyethylene tubing (PE50) was inserted into the jugular vein and exteriorized in the retroscapular area. Since cystometrographic parameters have been reported to be influenced by the time elapsed after catheter implantation, the rats were treated with 1 mg/kg Penicilline G, intramuscularly, to prevent infection and allowed to rest 3 days after implantation and before testing commenced.
For oral administration of test compounds, a polyethylene tube (PE50) was inserted into the stomach and was permanently sutured in place. The cannula was exteriorized through a subcutaneous tunnel in the retroscapular area, where it was connected with a plastic adapter to avoid the risk of removal by the rats.
On the day of the experiments, the rats were placed in Bollman's cages, the free tip of the bladder catheter was connected through a T-shaped tube to a pressure transducer (Grass PT300 or Gould P23) to record bladder pressure and to a peristaltic pump for continuous infusion, at a constant rate of […] of saline solution into the urinary bladder. The intraluminal pressure signal during infusion was continuously recorded. Two urodynamic parameters were evaluated: micturition pressure and interval between micturition that equates to volume capacity before detrusor contraction occurs (decrease in frequency of contractions). Micturition pressure is defined as the maximal intravesical pressure induced by the contraction of detrusor during micturition. Data was calculated as the mean of testing results for several animals at each dosage. The drug effects were expressed as a percent relative to activity of the control data, which was set at 100%.
Infusion was commenced with saline solution to determine activity in rats without test compounds to be used as the control baseline. Saline solution infusion was interrupted and the test compounds were administered. At time points 90 minutes after intravenous administration and 120 minutes after oral drug administration, cystometrograms were recorded in each animal and the mean values of the recorded cystometrographic parameters were calculated.

[1] = test system: rats experiencing partial urethral restriction; experiment: Cystometric parameters in rats experiencing partial urethral restriction; format: in vivo, rat; settings: oral administration of 10 mg/kg
Description: Male rats weighing 200 to 250 grams were used. The method to produce bladder outlet obstructions thereby producing partial urethral restriction is essentially that reported by Malmgren et al, J. Urol. 137:1291-1294, the disclosure of which is hereby incorporated herein by reference. Following anesthetic induction, the ventral abdominal wall and perineum were shaved and cleaned with betadine. A lower midline abdominal incision was made, and the bladder and proximal urethra were identified. A plastic rod with a ˜1 mm outer diameter was placed parallel to the urethra, and a silk ligature was tied around the urethra and the plastic rod. […]
On the day of testing, the bladder catheter was connected through a T-shaped tube to a pressure transducer (Grass PT300 or Gould P23) to record bladder pressure isovolumetrically and to a peristaltic pump for continuous infusion, at a constant rate of 0.1 ml/min, of saline solution into the urinary bladder. The pressure signal during infusion was continuously recorded.
Two urodynamic parameters were evaluated in the test rats: micturition pressure and interval between voiding that equates to volume capacity before detrusor contraction occurs (decrease in frequency of contractions). Changes in bladder activity were recorded and expressed as pressure or volume over time.

SMILES	inhibition of bladder contractions (micturition pressure) (healthy conscious rats)	frequency of bladder contractions (healthy conscious rats)	pressure of bladder contractions (healthy conscious rats)	frequency and intensity of pressure contractions ([1]; three test rats)	volume capacity (bladder capacity before voiding) ([1]; trace 1d)
CCN(CC)C(=O)c1ccc(C(c2ccccc2)N2C[C@@H](C)N(Cc3cccc(F)c3)C[C@@H]2C)cc1 (stereo partly drawn) [Compound 1, 4-((alpha-S)-alpha-((2S,5R)-2,5-Dimethyl-4-(3-fluorobenzyl)-1-piperazinyl)benzyl)-N,N-diethylbenzamide]	effected an inhibition of bladder contractions	a decrease in the frequency of bladder contractions	a decrease in the pressure of these contractions	marked improvement in both frequency and intensity of pressure contractions (reduced)	volume capacity increased
CCN(CC)C(=O)c1ccc(C(c2ccccc2)N2C[C@@H](C)N(Cc3ccc(F)cc3)C[C@@H]2C)cc1 (stereo partly drawn) [Compound 2, 4-((alpha-S)-alpha-((2S,5R)-2,5-Dimethyl-4-(4-fluorobenzyl)-1-piperazinyl)benzyl)-N,N-diethylbenzamide]	effected an inhibition of bladder contractions				
C=CCN1C[C@H](C)N(C(c2ccc(C(=O)N(CC)CC)cc2)c2cccc(OCC(=O)O)c2)C[C@H]1C (stereo partly drawn) [Compound 3, 3-((alpha-R)-alpha-((2S,5R)-4-allyl-2,5-dimethyl-1-piperazinyl)-4-(diethylaminocarbonyl)benzyl)phenoxyacetic acid]	effected an inhibition of bladder contractions				
C=CCN1C[C@H](C)N(C(c2ccccc2)c2cccc(C(=O)N(C)c3cccc(F)c3)c2)C[C@H]1C (stereo partly drawn) [Compound 4, 3-((alpha-S)-alpha-((2S,5R)-4-Allyl-2,5-dimethyl-1-piperazinyl)benzyl)-N-(3-fluorophenyl)-N-methylbenzamide]	effected an inhibition of bladder contractions				
Cc1ccccc1[C@H](c1cccc(O)c1)N1C[C@@H](C)NC[C@@H]1C [Compound 10, 3-((S)-((2S,5R)-2,5-Dimethyl-1-piperazinyl)(2-methylphenyl)methyl)phenol]	effected an inhibition of bladder contractions				
C[C@@H]1CN(Cc2ccc(C(=O)O)cc2)[C@@H](C)CN1[C@H](c1ccc(S(=O)(=O)N(C)C)cc1)c1cccc(O)c1 [Compound 11, 4-{4-[(R)-(4-dimethylsulfamoyl-phenyl)-(3-hydroxyphenyl)methyl]-(2S,5R)-dimethylpiperazin-1-ylmethyl}benzoic acid]		a decrease in the frequency of bladder contractions	a decrease in the pressure of these contractions		
